Where a name gives a salt, the structure may show the parent alone.
The compounds below were run on Acinetobacter baumannii ATCC17961 (assay: Antimicrobial susceptibility testing: 90% growth inhibitory concentration (IC90) determination in Iso-Sensitest broth, OD600 growth). Conditions: Acinetobacter baumannii, ATCC17961, 16 h, read-out: A. baumannii ATCC 17961 IC90 (uM), strain ATCC 17961, OD600 growth over 16 h.
Assay type: cell-based
Outline: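 Compounds were twofold serially diluted in DMSO across 10 points (e.g. 50 to 0.097 μM final) and inoculated at ~5×10^(5) CFU/ml. Plates incubated at 35±2° C, with OD600 read every 20 minutes over 16 h. IC90 was derived from growth inhibition during logarithmic growth.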

SMILES | IC90 [µM]
N[C@H]1CC[C@@H](C(=O)N2CCN(C(=O)c3ccc(Nc4nccn5c(-c6c[nH]nc6C(F)(F)F)cnc45)cc3Cl)CC2)C1 [Example 340, [4-[(1R,3S)-3-aminocyclopentanecarbonyl]piperazin-1-yl]-[2-chloro-4-[[3-[3-(trifluoromethyl)-1H-pyrazol-4-yl]imidazo[1,2-a]pyrazin-8-yl]amino]phenyl]methanone formate] | 0.194
N[C@@H]1CC[C@H](C(=O)N2CCN(C(=O)c3ccc(Nc4nccn5c(-c6c[nH]nc6C(F)(F)F)cnc45)cc3Cl)CC2)C1 [Example 342, [4-[(1S,3R)-3-aminocyclopentanecarbonyl]piperazin-1-yl]-[2-chloro-4-[[3-[3-(trifluoromethyl)-1H-pyrazol-4-yl]imidazo[1,2-a]pyrazin-8-yl]amino]phenyl]methanone formate] | 0.228
CCc1cc(Nc2nccn3c(-c4c[nH]nc4C(F)(F)F)cnc23)ccc1C(=O)N[C@@H](C)CN [Example 349, N-[(2S)-1-aminopropan-2-yl]-2-ethyl-4-[[3-[3-(trifluoromethyl)-1H-pyrazol-4-yl]imidazo[1,2-a]pyrazin-8-yl]amino]benzamide formate] | 1.63

Same assay, conditions: Acinetobacter baumannii, ATCC17961, 16 h, strain ATCC 17961, OD600 growth over 16 h, read-out: A. baumannii ATCC 17961 IC90

SMILES | IC90 [µM]
Cc1cc(Nc2nccn3c(-c4c[nH]nc4C(F)(F)F)cnc23)ccc1C(=O)N1CCN(C(=O)[C@H]2CCNC2)CC1 [Example 333, [2-methyl-4-[[3-[3-(trifluoromethyl)-1H-pyrazol-4-yl]imidazo[1,2-a]pyrazin-8-yl]amino]phenyl]-[4-[(3S)-pyrrolidine-3-carbonyl]piperazin-1-yl]methanone] | 0.695
Cc1cc(Nc2nccn3c(-c4c[nH]nc4C(F)(F)F)cnc23)ccc1C(=O)N1CCN(C(=O)[C@@H](C)N)CC1 [Example 334, (2R)-2-amino-1-[4-[2-methyl-4-[[3-[3-(trifluoromethyl)-1H-pyrazol-4-yl]imidazo[1,2-a]pyrazin-8-yl]amino]benzoyl]piperazin-1-yl]propan-1-one] | 0.782
C#CCn1cc(-c2cnc3c(Nc4ccc(C(=O)NC)c(CC)c4)nccn23)c(C(F)(F)F)n1 [Example 335, 2-ethyl-N-methyl-4-[[3-[1-prop-2-ynyl-3-(trifluoromethyl)pyrazol-4-yl]imidazo[1,2-a]pyrazin-8-yl]amino]benzamide] | 0.148
CCc1cc(Nc2nccn3c(-c4c[nH]nc4C(F)(F)F)cnc23)ccc1C(=O)NCCCCCCN [Example 336, N-(6-aminohexyl)-2-ethyl-4-[[3-[3-(trifluoromethyl)-1H-pyrazol-4-yl]imidazo[1,2-a]pyrazin-8-yl]amino]benzamide hydrochloride] | 0.152
NCCC(=O)NCCCNC(=O)c1ccc(Nc2nccn3c(-c4c[nH]nc4C(F)(F)F)cnc23)cc1Cl [Example 338, N-[3-(3-aminopropanoylamino)propyl]-2-chloro-4-[[3-[3-(trifluoromethyl)-1H-pyrazol-4-yl]imidazo[1,2-a]pyrazin-8-yl]amino]benzamide hydrochloride] | 0.691
CCc1cc(Nc2nccn3c(-c4cn(CC(N)=O)nc4C(F)(F)F)cnc23)ccc1C(=O)NC [Example 339, 4-[[3-[1-(2-amino-2-oxoethyl)-3-(trifluoromethyl)pyrazol-4-yl]imidazo[1,2-a]pyrazin-8-yl]amino]-2-ethyl-N-methylbenzamide] | 2.49
CCc1cc(Nc2nccn3c(-c4cn(CC#N)nc4C(F)(F)F)cnc23)ccc1C(=O)NC [Example 341, 4-[[3-[1-(cyanomethyl)-3-(trifluoromethyl)pyrazol-4-yl]imidazo[1,2-a]pyrazin-8-yl]amino]-2-ethyl-N-methylbenzamide] | 0.223
CCc1cc(Nc2nccn3c(-c4cn(CCCC#N)nc4C(F)(F)F)cnc23)ccc1C(=O)NC [Example 343, 4-[[3-[1-(3-cyanopropyl)-3-(trifluoromethyl)pyrazol-4-yl]imidazo[1,2-a]pyrazin-8-yl]amino]-2-ethyl-N-methylbenzamide] | 0.546
NCCCC(=O)NCCCNC(=O)c1ccc(Nc2nccn3c(-c4c[nH]nc4C(F)(F)F)cnc23)cc1Cl [Example 344, N-[3-(4-aminobutanoylamino)propyl]-2-chloro-4-[[3-[3-(trifluoromethyl)-1H-pyrazol-4-yl]imidazo[1,2-a]pyrazin-8-yl]amino]benzamide formate] | 0.572
CCCn1cc(-c2cnc3c(Nc4ccc(C(=O)NCCOCCN)c(CC)c4)nccn23)c(C(F)F)n1 [Example 346, N-[2-(2-aminoethoxy)ethyl]-4-[[3-[3-(difluoromethyl)-1-propylpyrazol-4-yl]imidazo[1,2-a]pyrazin-8-yl]amino]-2-ethylbenzamide] | 0.164
CCc1cc(Nc2nccn3c(-c4cn(C)nc4C(F)F)cnc23)ccc1C(=O)NCCOCCN [Example 347, N-[2-(2-aminoethoxy)ethyl]-4-[[3-[3-(difluoromethyl)-1-methylpyrazol-4-yl]imidazo[1,2-a]pyrazin-8-yl]amino]-2-ethylbenzamide] | 1.67
CNC(=O)c1ccc(Nc2nccn3c(-c4cn(C5CNC5)nc4C(F)(F)F)cnc23)cc1Cl [Example 348, 4-[[3-[1-(azetidin-3-yl)-3-(trifluoromethyl)pyrazol-4-yl]imidazo[1,2-a]pyrazin-8-yl]amino]-2-chloro-N-methylbenzamide hydrochloride] | 1.55
CCc1cc(Nc2nccn3c(-c4c[nH]nc4C(F)(F)F)cnc23)ccc1C(=O)NC [Example 350, 2-ethyl-N-methyl-4-[[3-[3-(trifluoromethyl)-1H-pyrazol-4-yl]imidazo[1,2-a]pyrazin-8-yl]amino]benzamide] | 0.371
C#CCn1cc(-c2cnc3c(Nc4ccc(C(=O)NC)c(Cl)c4)nccn23)c(C(F)(F)F)n1 [Example 351, 2-chloro-N-methyl-4-[[3-[1-prop-2-ynyl-3-(trifluoromethyl)pyrazol-4-yl]imidazo[1,2-a]pyrazin-8-yl]amino]benzamide] | 0.099
O=C(c1ccc(Nc2nccn3c(-c4c[nH]nc4C(F)(F)F)cnc23)cc1Cl)N1CCN(C(=O)C2(O)CCCNC2)CC1 (stereo not shown) [Example 352, [2-chloro-4-[[3-[3-(trifluoromethyl)-1H-pyrazol-4-yl]imidazo[1,2-a]pyrazin-8-yl]amino]phenyl]-[4-(3-hydroxypiperidine-3-carbonyl)piperazin-1-yl]methanone] | 0.229
CCc1cc(Nc2nccn3c(-c4c[nH]nc4C(F)(F)F)cnc23)ccc1C(=O)N1CCN(C(=O)C2CCNCC2)CC1 [Example 354, [2-ethyl-4-[[3-[3-(trifluoromethyl)-1H-pyrazol-4-yl]imidazo[1,2-a]pyrazin-8-yl]amino]phenyl]-[4-(piperidine-4-carbonyl)piperazin-1-yl]methanone hydrochloride] | 0.918
CCc1cc(Nc2nccn3c(-c4c[nH]nc4C(F)(F)F)cnc23)ccc1C(=O)N1CCN(C(=O)C2(O)CCNCC2)CC1 [Example 355, [2-ethyl-4-[[3-[3-(trifluoromethyl)-1H-pyrazol-4-yl]imidazo[1,2-a]pyrazin-8-yl]amino]phenyl]-[4-(4-hydroxypiperidine-4-carbonyl)piperazin-1-yl]methanone hydrochloride] | 1.3
CNC(=O)c1ccc(Nc2nccn3c(-c4cn(CC(N)=O)nc4C(F)(F)F)cnc23)cc1Cl [Example 357, 4-[[3-[1-(2-amino-2-oxoethyl)-3-(trifluoromethyl)pyrazol-4-yl]imidazo[1,2-a]pyrazin-8-yl]amino]-2-chloro-N-methylbenzamide] | 1.59
CNC(=O)c1ccc(Nc2nccn3c(-c4cn(CCC#N)nc4C(F)(F)F)cnc23)cc1Cl [Example 358, 2-chloro-4-[[3-[1-(2-cyanoethyl)-3-(trifluoromethyl)pyrazol-4-yl]imidazo[1,2-a]pyrazin-8-yl]amino]-N-methylbenzamide] | 0.189
CNC(=O)c1ccc(Nc2nccn3c(-c4cn(CCCC#N)nc4C(F)(F)F)cnc23)cc1Cl [Example 359, 2-chloro-4-[[3-[1-(3-cyanopropyl)-3-(trifluoromethyl)pyrazol-4-yl]imidazo[1,2-a]pyrazin-8-yl]amino]-N-methylbenzamide] | 0.303
Cc1cc(Nc2nccn3c(-c4c[nH]nc4C(F)(F)F)cnc23)ccc1C(=O)NCCOCCN [Example 360, N-[2-(2-aminoethoxy)ethyl]-2-methyl-4-[[3-[3-(trifluoromethyl)-1H-pyrazol-4-yl]imidazo[1,2-a]pyrazin-8-yl]amino]benzamide hydrochloride] | 0.257
NCCOCCNC(=O)c1ccc(Nc2nccn3c(-c4c[nH]nc4C(F)(F)F)cnc23)cc1Cl [Example 361, N-[2-(2-aminoethoxy)ethyl]-2-chloro-4-[[3-[3-(trifluoromethyl)-1H-pyrazol-4-yl]imidazo[1,2-a]pyrazin-8-yl]amino]benzamide hydrochloride] | 0.267
NCCCCNC(=O)c1ccc(Nc2nccn3c(-c4c[nH]nc4C(F)(F)F)cnc23)cc1Cl [Example 362, N-(4-aminobutyl)-2-chloro-4-[[3-[3-(trifluoromethyl)-1H-pyrazol-4-yl]imidazo[1,2-a]pyrazin-8-yl]amino]benzamide] | 0.35
NCCNC(=O)c1ccc(Nc2nccn3c(-c4c[nH]nc4C(F)(F)F)cnc23)cc1Cl [Example 363, N-(2-aminoethyl)-2-chloro-4-[[3-[3-(trifluoromethyl)-1H-pyrazol-4-yl]imidazo[1,2-a]pyrazin-8-yl]amino]benzamide] | 0.738

Same assay, conditions: strain ATCC 17961, OD600 growth over 16 h, read-out: A. baumannii ATCC 17961 IC90

SMILES | IC90 [µM]
NCCCC[C@H](N)C(=O)NCCCNC(=O)c1ccc(Nc2nccn3c(-c4c[nH]nc4C(F)(F)F)cnc23)cc1Cl [Example 345, 2-chloro-N-[3-[[(2S)-2,6-diaminohexanoyl]amino]propyl]-4-[[3-[3-(trifluoromethyl)-1H-pyrazol-4-yl]imidazo[1,2-a]pyrazin-8-yl]amino]benzamide foramate] | 1.22

Reference: patent US20230203043A1, “NOVEL IMIDAZOPYRAZINE DERIVATIVES” (Hoffmann-La Roche Inc., priority 2020, published 2023)
